Source: PMC6985722 (Antimicrobial Agents and Chemotherapy, 2020)
“And” between values parts separate entries of the source, which are not always exact repeats. Equal entries are not always repeated.

Assay: RSV human challenge study: safety (adverse events, clinical and laboratory tests, ECG)
Format: in vivo
Description: Twice-daily collection of nasal wash samples allowed measurement of viral load via RT-qPCR and quantitative culture. RT-qPCR results were reported as PFUe/ml when the standard curve included in each assay contained a known infectious amount (PFU) of RSV, as described previously ([30]). Subjects reported the occurrence and severity of symptoms three times daily using a 10-item subject symptom diary card as previously reported ([12]) (see Supplemental Methods). Throughout the quarantine period, used tissues were collected and weighed daily, and total nasal mucus weight was recorded. PK assessments were based on venous blood samples. Safety assessments included measurement of vital signs, standard 12-lead ECG recordings, spirometry, a complete physical examination, and a respiratory-directed physical examination. AEs were monitored daily, coded according to the Medical Dictionary for Regulatory Activities Version 20.0, and graded according to the National Cancer Institute Common Terminology Criteria for Adverse Events Version 4.0 (see Supplemental Methods for further details).
The primary efficacy analysis population (the ITT-I analysis set) comprised all randomized subjects who received challenge virus and at least one dose of study drug and met the criterion for laboratory-confirmed RSV infection (presence of detectable RSV). Sensitivity analyses were based on a subset of the ITT-I population who had first detectable RSV infection prior to study drug administration (the ITT-A analysis set) and a fixed time period of 6.5 days (comprising data for all subjects for 6.5 days of evaluation after the first dose, regardless of the staggered commencement of dosing). The safety analysis set comprised all subjects who received challenge virus; the PK analysis set comprised all subjects who received the challenge virus and provided at least one postdose PK result. […]
unexpected, in the opinion of the investigator, were captured as AEs. Following the viral challenge, upper and lower respiratory tract symptoms identified by the directed physical examination were expected, presumed to represent virus infection consequent to viral challenge and not captured as an AE unless they met the criteria for an AE and were deemed clinically significant in the opinion of the investigator. AEs were monitored daily from screening (day –2) through to the follow -up visit (day 28) and coded to system organ class and preferred term according to the Medical Dictionary for Regulatory Activities Version
20.0. AEs were graded according to the National Cancer Institute Common Terminology Criteria for Adverse Events Version 4.0, andthe relationship to the investigational medical product or to challenge virus was recorded. An AE with an onset date/time after […]
that were considered by the investigator to be causally related to challenge virus can be included in the analysis of AEs.
Outcomes. Safety outcomes included the occurrence of AEs. PK outcomes included the maximum plasma concentration, the minimum plasma concentration, the time to maximum plasma concentration, and the area under the plasma concentration-time curve with a dosing interval, calculated by the linear trapezoidal rule.

NCc1ccc2c(c1)nc(CN1C(=O)C3(CC3)c3ccc(F)cc31)n2CCCC(F)(F)F [RV521]
Grade 2 TEAEs, number of events (200 mg): 2 | Subjects with gastrointestinal TEAEs (200 mg): 32% | Subjects with grade 2 TEAEs (200 mg): 2 subjects | Treatment-emergent AEs, number of events (200 mg): 19 | Clinical or laboratory tests (vital signs, liver enzymes) vs placebo (200 mg and 350 mg): No notable differences | ECG findings (200 mg and 350 mg): no clinically significant ECG findings | TEAEs of grade ≥3 (200 mg and 350 mg): no TEAEs of grade ≥3 | TEAE Abdominal discomfort (200 mg, safety analysis set): 0 number of subjects (%) | TEAE Abdominal distention (200 mg, safety analysis set): 0 number of subjects (%) | TEAE Abdominal pain (Table 4) (200 mg, safety analysis set): 2 (9) No. of subjects (%) | TEAE Abdominal pain (Table S4, listed apart from Abdominal pain lower) (200 mg, safety analysis set): 2 (9) number of subjects (%) | TEAE Abdominal pain lower (200 mg, safety analysis set): 0 number of subjects (%) | TEAE Blood and lymphatic system disorders (200 mg, safety analysis set): 0 number of subjects (%) | TEAE Cardiac disorders (200 mg, safety analysis set): 0 number of subjects (%) | TEAE Catheter site erythema (200 mg, safety analysis set): 0 number of subjects (%) | TEAE Catheter site paraesthesia (200 mg, safety analysis set): 1 (5) number of subjects (%) | TEAE Decreased appetite (200 mg, safety analysis set): 1 (5) number of subjects (%) | TEAE Diarrhea (200 mg, safety analysis set): 3 (14) No. of subjects (%) | TEAE Dizziness (200 mg, safety analysis set): 1 (5) number of subjects (%) | TEAE Epistaxis (200 mg, safety analysis set): 1 (5) number of subjects (%) | TEAE Eye disorders (200 mg, safety analysis set): 0 number of subjects (%) | TEAE Eye pain (200 mg, safety analysis set): 0 number of subjects (%) | TEAE Food poisoning (200 mg, safety analysis set): 1 (5) number of subjects (%) | TEAE Gastroenteritis (200 mg, safety analysis set): 0 number of subjects (%) | TEAE Gastrointestinal disorders (200 mg, safety analysis set): 7 (32) number of subjects (%) | TEAE General disorders and administration site conditions (200 mg, safety analysis set): 1 (5) number of subjects (%) | TEAE Headache (200 mg, safety analysis set): 0 No. of subjects (%) | TEAE Hypoaesthesia (200 mg, safety analysis set): 1 (5) number of subjects (%) | TEAE Infections and infestations (200 mg, safety analysis set): 3 (14) number of subjects (%) | TEAE Injury, poisoning and procedural complications (200 mg, safety analysis set): 1 (5) number of subjects (%) | TEAE Joint injury (200 mg, safety analysis set): 0 number of subjects (%) | TEAE Lip dry (200 mg, safety analysis set): 0 number of subjects (%) | TEAE Lymphadenopathy (200 mg, safety analysis set): 0 number of subjects (%) | TEAE Metabolism and nutrition disorders (200 mg, safety analysis set): 1 (5) number of subjects (%) | TEAE Musculoskeletal and connective tissue disorders (200 mg, safety analysis set): 0 number of subjects (%) | TEAE Musculoskeletal pain (200 mg, safety analysis set): 0 number of subjects (%) | TEAE Myalgia (200 mg, safety analysis set): 0 number of subjects (%) | TEAE Myocarditis (200 mg, safety analysis set): 0 number of subjects (%) | TEAE Nausea (200 mg, safety analysis set): 2 (9) No. of subjects (%) | TEAE Nervous system disorders (200 mg, safety analysis set): 2 (9) number of subjects (%) | TEAE Ocular hyperemia (200 mg, safety analysis set): 0 number of subjects (%) | TEAE Oropharyngeal pain (200 mg, safety analysis set): 0 number of subjects (%) | TEAE Pain in jaw (200 mg, safety analysis set): 0 number of subjects (%) | TEAE Pyrexia (200 mg, safety analysis set): 0 number of subjects (%) | TEAE Rash (200 mg, safety analysis set): 0 No. of subjects (%) | TEAE Respiratory, thoracic and mediastinal disorders (200 mg, safety analysis set): 1 (5) number of subjects (%) | TEAE Rhinitis (200 mg, safety analysis set): 1 (5) No. of subjects (%) | TEAE Skin abrasion (200 mg, safety analysis set): 1 (5) number of subjects (%) | TEAE Skin and subcutaneous tissue disorders (200 mg, safety analysis set): 1 (5) number of subjects (%) | TEAE Tension headache (200 mg, safety analysis set): 0 number of subjects (%) | TEAE Total (200 mg, safety analysis set): 11 (50) number of subjects (%) and 11 number of subjects (%) | TEAE URTI (200 mg, safety analysis set): 2 (9) No. of subjects (%) | TEAE Vessel puncture site erythema (200 mg, safety analysis set): 0 number of subjects (%) | TEAE Viral URTI (200 mg, safety analysis set): 0 No. of subjects (%)
